The source of these data is patent US9737075B2, “Synergistic benzoxaborole-containing anti-fungicidal composition” (The Penn State Research Foundation, priority 2015, dated 2017).

Values after ≈ are worked out from the molar mass of the structure shown. Where two headings read alike, the source gives them in different places.

Type in all cases: cell-based
In assay [1] the test system is Fusarium solani f. sp. pisi (MP VI). Nature of the assay: Broth microdilution MIC of individual antifungals. The conditions noted are these: Fusarium solani f. sp. pisi (MP VI); individual antifungal, 25% PDB, about 25° C., 72 hours; range over N independent triplicate studies; read-out: Independent MIC.
The subject of the next assay is Fusarium graminearum. As to the kind of experiment: microbe, parasite or virus in culture. The following applies: Fusarium graminearum, 72 h, read-out: Independent MIC.
The next assay concerns Candida albicans. Nature of the assay: Broth microdilution MIC of individual antifungals. The following applies: read-out: Independent MIC.
The test system of another assay is Penicillium chrysogenum. Nature of the assay: Broth microdilution MIC of individual antifungals. The conditions noted are these: read-out: Independent MIC.
Another assay has as its system Aspergillus flavus. Nature of the assay: Broth microdilution MIC of individual antifungals. The following applies: read-out: Independent MIC.
In assay [2] the test system is Fusarium oxysporum f. sp. lycopersici. As to the kind of experiment: Broth microdilution MIC of individual antifungals. The conditions noted are these: individual antifungal, 25% PDB, about 25° C., 72 hours, range over N independent triplicate studies.
The next assay concerns Mucor sp. As to the kind of experiment: Broth microdilution MIC of individual antifungals. The conditions noted are these: individual antifungal, 25% PDB, about 25° C., 72 hours, range over N independent triplicate studies.
The next assay concerns Alternaria solani. Nature of the assay: Broth microdilution MIC of individual antifungals. The conditions noted are these: individual antifungal, 25% PDB, about 25° C., 72 hours, range over N independent triplicate studies, read-out: Independent MIC.
For another assay, the system named is Magnaporthe grisea. As to the kind of experiment: microbe, parasite or virus in culture. The following applies: Pyricularia oryzae, 72 h, read-out: Independent MIC.
The test system of a further assay is Sclerotinia homoeocarpa. Nature of the assay: Broth microdilution MIC of individual antifungals. The conditions noted are these: Clarireedia homoeocarpa; Sclerotinia homoeocarpa; individual antifungal, 25% PDB, about 25° C., 72 hours; range over N independent triplicate studies; read-out: Independent MIC.
Another assay deals with Rhizopus sp. Nature of the assay: Broth microdilution MIC of individual antifungals. The following applies: Rhizopus sp., individual antifungal, 25% PDB, about 25° C., 72 hours, range over N independent triplicate studies, read-out: Independent MIC.
Assay [3] relates to Colletotrichum orbiculare. As to the kind of experiment: Broth microdilution MIC of individual antifungals. The following applies: individual antifungal, 25% PDB, about 25° C., 72 hours, range over N independent triplicate studies, read-out: Independent MIC.
For the next assay, the system named is Botrytis cinerea 10-1728. As to the kind of experiment: Broth microdilution MIC of individual antifungals. The following applies: 101728; Botrytis cinerea 10-1728; individual antifungal, 25% PDB, about 25° C., 72 hours; range over N independent triplicate studies; read-out: Independent MIC.
For another assay, the system named is Botrytis cinerea B17. Nature of the assay: Broth microdilution MIC of individual antifungals. The conditions noted are these: Botrytis cinerea B17; individual antifungal, 25% PDB, about 25° C., 72 hours; range over N independent triplicate studies; read-out: Independent MIC.
The subject of another assay is Fusarium verticillioides. As to the kind of experiment: Broth microdilution MIC of individual antifungals. The following applies: individual antifungal, 25% PDB, about 25° C., 72 hours, range over N independent triplicate studies, read-out: Independent MIC.
The test system of another assay is Pythium aphanodermatum. As to the kind of experiment: Broth microdilution MIC of individual antifungals. The following applies: individual antifungal, 25% PDB, about 25° C., 72 hours, range over N independent triplicate studies.
A further assay deals with Stachybotrys chartarum. Nature of the assay: Broth microdilution MIC of individual antifungals. The following applies: individual antifungal, 25% PDB, about 25° C., 72 hours, range over N independent triplicate studies, read-out: Independent MIC.
The next assay concerns Fusarium oxysporum ST33. Nature of the assay: Broth microdilution MIC of individual antifungals. The following applies: individual antifungal, 25% PDB, about 25° C., 72 hours, range over N independent triplicate studies.
The next assay concerns Aspergillus niger. As to the kind of experiment: Broth microdilution MIC of individual antifungals. The following applies: individual antifungal, 25% PDB, about 25° C., 72 hours, range over N independent triplicate studies, read-out: Independent MIC.
Another assay has as its system Aureobasidium pullulans. Nature of the assay: Broth microdilution MIC of individual antifungals. The following applies: individual antifungal, 25% PDB, about 25° C., 72 hours, range over N independent triplicate studies, read-out: Independent MIC.
The test system of assay [4] is Mycosphaerella zeae-maydis. As to the kind of experiment: Broth microdilution MIC of individual antifungals. The following applies: Didymella maydis, individual antifungal, 25% PDB, about 25° C., 72 hours, range over N independent triplicate studies.
The subject of assay [5] is two dozen different fungal organisms. As to the kind of experiment: Broth microdilution MIC, summary over the organisms examined. As to the method: All antifungal susceptibility assays were conducted in triplicate and N independent times. Thus, the inhibition studies were conducted a total of 3·N times. […] Thus, each synergy assay (combination of two antifungals) was conducted in conjunction with independent MIC determination. FICI values were calculated by comparing the inhibition activity of the combination (benzoxaborole+another antifungal) against the efficacy of the individual antifungal within the same experiment (using the same experimental conditions).
The studies were performed in flat bottom, 96-well microtiter plates (Greiner Bio-One).
Plates sealed with clear polyester film (VWR) were incubated at a temperature of about 25° C. The progress of fungal growth was monitored at 48 hours, 72 hours, 7 days, and 15 days. […] In order to establish appropriate comparison between the different fungi, the FICI (thus, the MICs used) determination was done at 72 hours for all cases discussed herein.
The MICs of the individual antifungals (MICBoron and MICA) and in combination (MICBA) were determined after 72 hours of incubation. […] MICA is defined as the MIC value of every other individual non-benzoxaborole-based antifungal. MICBA is defined as the MIC value when the benzoxaborole antifungal is combined with another non-benzoxaborole antifungal. […] The combination studies were performed in triplicate in flat bottom 96-well microtiter plates with a final media volume of 0.2 mL/well.

Another assay has as its system Rhizoctonia solani. Nature of the assay: Broth microdilution MIC of individual antifungals. The conditions noted are these: read-out: Independent MIC.
Another assay relates to Aspergillus fumigatus. As to the kind of experiment: Broth microdilution MIC of individual antifungals. The following applies: individual antifungal, 25% PDB, about 25° C., 72 hours, range over N independent triplicate studies, read-out: Independent MIC.
Another assay deals with Phytophthora pini. Nature of the assay: Broth microdilution MIC of individual antifungals. The conditions noted are these: individual antifungal, 25% PDB, about 25° C., 72 hours, range over N independent triplicate studies.
Setting [6] is: individual antifungal, 25% PDB, about 25° C., 72 hours, range over N independent triplicate studies.
[7] abbreviates: by itself, against the organisms examined (Table 1), regularly.
Where [8] appears, read: against many species tested here.

Take `OB1OCc2cc(F)ccc21` [B90, 5-Fluoro-1,3-dihydro-2,1-benzoxaborol-1-ol]: the MIC in [1] was 0.5 to 1 µg/mL; in the assay on Fusarium graminearum, 0.5 to 2 µg/mL (≈ 3.29 to 13.2 µM); in the assay with Candida albicans (setting [6]) it was 0.5 µg/mL; in the assay on Penicillium chrysogenum (setting [6]), 0.19 to 0.39 µg/mL; with Aspergillus flavus (setting [6]), 0.5 to 1 µg/mL; in assay [2], 0.25 to 0.5 µg/mL. Also, the MIC was 0.25 µg/mL with Mucor sp.; 0.25 to 0.5 µg/mL in the assay on Alternaria solani; 1.25 to 2 µg/mL (≈ 8.23 to 13.2 µM) with Magnaporthe grisea; 0.25 to 1 µg/mL in the assay on Sclerotinia homoeocarpa; 1 to 2 µg/mL in the assay on Rhizopus sp. (Rhizopus, 72 h); 0.78 to 1.56 µg/mL in assay [3]. Besides, the MIC in the assay with Botrytis cinerea 10-1728 is 0.25 to 0.5 µg/mL; with Botrytis cinerea B17, 0.5 to 2 µg/mL; in the assay on Fusarium verticillioides, 0.25 to 0.4 µg/mL; in the assay with Pythium aphanodermatum it was 2 to 4 µg/mL; with Stachybotrys chartarum, 0.25 to 0.5 µg/mL; with Fusarium oxysporum ST33, 0.25 to 0.5 µg/mL. Further, the MIC was 0.25 to 1 µg/mL in the assay with Aspergillus niger; 0.25 to 0.5 µg/mL with Aureobasidium pullulans; 1 to 8 µg/mL in assay [4]; at most 4 µg/mL in assay [5] (setting [7]); 1.56 to 8 µg/mL in the assay on Rhizoctonia solani (setting [6]); 0.063 to 0.125 µg/mL in the assay on Aspergillus fumigatus.

On to `Cc1ccc2c(c1)COB2O` [B1, 5-Methyl-1,3-dihydro-2,1-benzoxaborol-1-ol], for which the MIC in assay [1] was 2 µg/mL; in the assay with Aspergillus flavus (setting [6]), 2 µg/mL; in assay [2], 1 µg/mL; in the assay with Mucor sp. it was 1 µg/mL; in the assay with Alternaria solani, 1 µg/mL; with Sclerotinia homoeocarpa, 1 µg/mL. The MIC was 16 µg/mL in the assay on Rhizopus sp. (Rhizopus, 72 h); 2 µg/mL in the assay with Botrytis cinerea 10-1728; 2 µg/mL in the assay with Botrytis cinerea B17; 0.5 µg/mL with Fusarium verticillioides; 0.5 µg/mL with Stachybotrys chartarum; 1 µg/mL in the assay on Fusarium oxysporum ST33. For the same compound, the MIC with Aspergillus niger is 2 µg/mL; in the assay on Aureobasidium pullulans it was 1 µg/mL; in assay [4] it was 16 µg/mL; in assay [5] (setting [7]) it was at most 4 µg/mL; with Aspergillus fumigatus it was 0.25 µg/mL.

On to `O=C1C2CC=CCC2C(=O)N1SC(Cl)(Cl)Cl` (stereo not drawn) [Captan, captan], for which the MIC in [1] lay in the range of 3 to 3.12 µg/mL; with Fusarium graminearum, 0.78 to 0.8 µg/mL (≈ 2.59 to 2.66 µM); in the assay with Penicillium chrysogenum (setting [6]), 0.75 to 0.78 µg/mL; in the assay with Aspergillus flavus (setting [6]) it was 12.5 to 25 µg/mL; in assay [2], 1.56 to 4 µg/mL; in the assay with Mucor sp. it was 3.12 to 12.5 µg/mL. Moreover, the MIC fell in the range of 1.5 to 3.12 µg/mL in the assay with Alternaria solani; 0.19 to 0.2 µg/mL (≈ 0.632 to 0.665 µM) in the assay on Magnaporthe grisea; 2 to 4 µg/mL in the assay on Sclerotinia homoeocarpa; 12.5 to 40 µg/mL in the assay on Rhizopus sp. (Rhizopus, 72 h); 0.39 to 0.78 µg/mL in assay [3]; 0.94 to 1.56 µg/mL in the assay with Botrytis cinerea 10-1728. Also, the MIC was 1.88 to 4 µg/mL with Botrytis cinerea B17; 1 to 2 µg/mL in the assay on Fusarium verticillioides; 0.39 µg/mL with Phytophthora pini; 28 µg/mL in the assay with Pythium aphanodermatum; 0.39 to 0.5 µg/mL in the assay with Stachybotrys chartarum; 1 to 2 µg/mL in the assay with Fusarium oxysporum ST33. Besides, the MIC is 12.5 to 16 µg/mL in the assay with Aspergillus niger; 0.375 to 0.78 µg/mL with Aureobasidium pullulans; 1 to 1.56 µg/mL in assay [4]; above 25 µg/mL in [5] (setting [8]); 6.25 to 12.5 µg/mL in the assay with Aspergillus fumigatus.

`S=C(S)NCCNC(=S)S` [Zineb, zineb]: the MIC in [1] is 6.25 to 12.5 µg/mL; in the assay with Fusarium graminearum, 1.56 µg/mL (≈ 7.34 µM); with Candida albicans (72 h), 3.12 µg/mL; in the assay with Penicillium chrysogenum (72 h), 1.56 to 6.25 µg/mL; with Aspergillus flavus (72 h) it was 1 to 1.56 µg/mL; in the assay on Alternaria solani, 6.25 to 12.5 µg/mL. In addition, the MIC is 0.78 to 1.56 µg/mL (≈ 3.67 to 7.34 µM) in the assay on Magnaporthe grisea; 6.25 to 12.5 µg/mL in the assay with Sclerotinia homoeocarpa; 12.5 µg/mL with Rhizopus sp.; 3.13 to 6.25 µg/mL in assay [3]; 3 to 3.12 µg/mL in the assay with Botrytis cinerea 10-1728; 3.12 to 6.25 µg/mL in the assay with Fusarium verticillioides. Further, the MIC in the assay on Phytophthora pini is 25 µg/mL; in assay [4], 1.56 to 2 µg/mL; in assay [5] (setting [8]) it was above 25 µg/mL; in the assay on Rhizoctonia solani (72 h), 3.12 µg/mL; with Aspergillus fumigatus it was 0.78 to 1.56 µg/mL.
